Test results as given in patent US10954232B2, “Pyrazole derivative as ALK5 inhibitor and uses thereof” (HANMI PHARMACEUTICAL CO., LTD., priority 2016, dated 2021).

Target: T1, ALK5 kinase (Homo sapiens, UniProt P36897)
T1 construct: GST; purchased Thermo Fisher Scientific Solutions
T1 sequence (P36897 34-503): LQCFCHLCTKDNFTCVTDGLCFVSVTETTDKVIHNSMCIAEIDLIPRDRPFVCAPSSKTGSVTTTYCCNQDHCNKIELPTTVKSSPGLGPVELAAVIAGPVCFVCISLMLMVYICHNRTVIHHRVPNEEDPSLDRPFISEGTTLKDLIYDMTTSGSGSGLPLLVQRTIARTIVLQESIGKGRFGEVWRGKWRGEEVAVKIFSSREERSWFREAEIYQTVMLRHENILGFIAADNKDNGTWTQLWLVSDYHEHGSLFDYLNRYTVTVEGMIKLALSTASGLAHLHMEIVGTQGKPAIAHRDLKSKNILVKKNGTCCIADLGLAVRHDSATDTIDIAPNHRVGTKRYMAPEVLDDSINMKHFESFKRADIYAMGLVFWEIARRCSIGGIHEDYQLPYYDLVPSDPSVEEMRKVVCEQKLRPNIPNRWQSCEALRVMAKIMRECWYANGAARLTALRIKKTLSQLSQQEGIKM
Test: Activity inhibition test on ALK5 enzyme (LanthaScreen Eu binding kinase assay)
Details: kinase tracer 178, 60 minutes at room temperature
Protocol: For each of the compounds obtained in Examples 1 to 227, inhibitory activity against ALK5 kinase was measured.
For this, a LanthaScreen Eu binding kinase assay method was used, and ALK5 kinase, a kinase buffer, a kinase tracer 178, and a LanthaScreen Eu-GST binding antibody were all purchased from Thermo Fisher Scientific Solutions. Each of the compounds was made into a 10 mM DMSO solution, and diluted by 1/10 to a concentration of 1 μM to 0.0001 μM with an aqueous solution containing 4% DMSO. The test was performed in 384 well plates (well polystyrene low volume round-bottomed plates). First, 5 μL of the diluted compound solution was added, then 5 μL of the kinase/antibody mixture solution was introduced thereto, and 5 μL of the tracer was introduced thereto. Herein, these were added to each well so that the final kinase concentration became 5 nM, the final Eu-GST binding antibody concentration 2 nM, and the kinase tracer 178 concentration 10 nM, and the result was reacted in a stirrer for 60 minutes at room temperature. Then a fluorescence value was measured using a fluorescence meter (molecular device) ([…], 665 nm emission filter). Herein, as for the degree of compound activity to inhibit the kinase reaction, a phosphorylate rate was calculated from 0% to 100% with respect to a control group according to the protocol included in the kit, and a 50% inhibitory concentration (IC50) value was calculated by obtaining the x-axis concentration in the region where 50% activity was inhibited.

| SMILES | IC50 |
| --- | --- |
| Cc1cccc(-n2nc(C(=O)Nc3ccc(S(=O)(=O)NCC(F)(F)F)cc3)cc2-c2ccc3ncsc3c2)n1 [Example 58, 5-(benzo[d]thiazol-6-yl)-1-(6-methylpyridin-2-yl)-N-(4-(N-(2,2,2-trifluoroethyl)sulfamoyl)phenyl)-1H-pyrazole-3-carboxyamide] | 5.6 nM |
| Cc1cccc(-n2nc(C(=O)Nc3ccc(CS(C)(=O)=O)cc3)cc2-c2ccc3ncsc3c2)n1 [Example 59, 5-(benzo[d]thiazol-6-yl)-1-(6-methylpyridin-2-yl)-N-(4-((methylsulfonyl)methyl)phenyl)-1H-pyrazole-3-carboxyamide] | 20 nM |
| Cc1cccc(-n2nc(C(=O)Nc3cccc(CS(N)(=O)=O)c3)cc2-c2ccc3ncsc3c2)n1 [Example 60, 5-(benzo[d]thiazol-6-yl)-1-(6-methylpyridin-2-yl)-N-(3-(sulfamoylmethyl)phenyl)-1H-pyrazole-3-carboxyamide] | 13 nM |
| Cc1cccc(-n2nc(C(=O)Nc3ccc(CS(N)(=O)=O)cc3)cc2-c2ccc3ncsc3c2)n1 [Example 61, 5-(benzo[d]thiazol-6-yl)-1-(6-methylpyridin-2-yl)-N-(4-(sulfamoylmethyl)phenyl)-1H-pyrazole-3-carboxyamide] | 10 to 100 nM |
| Cc1cccc(-n2nc(C(=O)Nc3ccc(F)c(CS(N)(=O)=O)c3)cc2-c2ccc3ncsc3c2)n1 [Example 62, 5-(benzo[d]thiazol-6-yl)-N-(4-fluoro-3-(sulfamoylmethyl)phenyl)-1-(6-methylpyridin-2-yl)-1H-pyrazole-3-carboxyamide] | 16 nM |
| Cc1cccc(-n2nc(C(=O)Nc3ccc(NC4CCS(=O)(=O)C4)cc3)cc2-c2ccc3ncsc3c2)n1 (stereo not shown) [Example 63, 5-(benzo[d]thiazol-6-yl)-N-(4-((1,1-dioxidotetrahydrothiophen-3-yl)amino)phenyl)-1-(6-methylpyridin-2-yl)-1H-pyrazole-3-carboxyamide] | 3.7 nM |
| Cc1cccc(-n2nc(C(=O)Nc3ccncc3)cc2-c2ccc3ncsc3c2)n1 [Example 64, 5-(benzo[d]thiazol-6-yl)-1-(6-methylpyridin-2-yl)-N-(pyridin-4-yl)-1H-pyrazole-3-carboxyamide] | < 10 nM |
| COc1ccc(NC(=O)c2cc(-c3ccc4ncsc4c3)n(-c3cccc(C)n3)n2)cn1 [Example 65, 5-(benzo[d]thiazol-6-yl)-N-(6-methoxypyridin-3-yl)-1-(6-methylpyridin-2-yl)-1H-pyrazole-3-carboxyamide] | < 10 nM |
| COc1cc(NC(=O)c2cc(-c3ccc4ncsc4c3)n(-c3cccc(C)n3)n2)ccn1 [Example 66, 5-(benzo[d]thiazol-6-yl)-N-(2-methoxypyridin-4-yl)-1-(6-methylpyridin-2-yl)-1H-pyrazole-3-carboxyamide] | 3.2 nM |
| CSc1ccc(NC(=O)c2cc(-c3ccc4ncsc4c3)n(-c3cccc(C)n3)n2)cn1 [Example 67, 5-(benzo[d]thiazol-6-yl)-N-(6-(methylthio)pyridin-3-yl)-1-(6-methylpyridin-2-yl)-1H-pyrazole-3-carboxyamide] | 9.6 nM |
| Cc1cccc(-n2nc(C(=O)Nc3cccc(S(C)(=O)=O)n3)cc2-c2ccc3ncsc3c2)n1 [Example 68, 5-(benzo[d]thiazol-6-yl)-1-(6-methylpyridin-2-yl)-N-(6-(methylsulfonyl)pyridin-2-yl)-1H-pyrazole-3-carboxyamide] | 65 nM |
| Cc1cccc(-n2nc(C(=O)Nc3ccc(S(C)(=O)=O)nc3)cc2-c2ccc3ncsc3c2)n1 [Example 69, 5-(benzo[d]thiazol-6-yl)-N-(6-(methylsulfonyl)pyridin-3-yl)-1-(6-methylpyridin-2-yl)-1H-pyrazole-3-carboxyamide] | 4.9 nM |
| Cc1cccc(-n2nc(C(=O)Nc3ccnc(S(C)(=O)=O)c3)cc2-c2ccc3ncsc3c2)n1 [Example 70, 5-(benzo[d]thiazol-6-yl)-1-(6-methylpyridin-2-yl)-N-(2-(methylsulfonyl)pyridin-4-yl)-1H-pyrazole-3-carboxyamide] | 4.6 nM |
